What all share (type): cell-based, human
For experiment [1], the system named is E-selectine adhesive molecule CD62 (ELAM-1). The experiment is described as follows: Cytofluorometric quantitative analysis of E-selectine (ELAM-1) expression in ECV 304 cells. The settings on record: 48 hr. The method, then:
(§1) Cell lines ECV 304: they are cells coming from umbilical cord of a new-born and spontaneously immortalized at the 136th step (distributed from Collection of Cell Cultures). Such cells were cultured in a complete medium consisted of: Medium 199, L-glutamine 1%, penicillin/streptomycin 10 (Invitrogen) with an addition of 10% FCS (fetal calf serum) (Hy-clone).
Cytofluorometric quantitative analysis of aminaphtone effects on the E-selectine adhesive molecule expression CD62 (ELAM-1).
Cells of the ECV304 line, cultured in 28 cm^2 Petri dishes, were stimulated with IL-1β at 100 U/ml (Roche) over 48 hrs in a complete medium and complete medium additioned with aminaphtone at the concentration of 2; 4; 5 μg/ml, respectively. Such concentrations are equivalent to concentrations reached “in vivo” through administration of Capillarema per os at the standard dosage of 3 capsules/day (capsules with 75 mg of active substance per day). Furthermore, cells untreated with IL-1β were incubated in a complete medium additioned with aminaphtone alone at the concentration of 4 μg/ml.
Samples, after washing with PBS, were removed from the culture plates through a treatment with trypsin-EDTA. Adhesive molecules expression was detected through incubation over 20 min. with 7 μl/10^6 of human monoclonal antibody CD62-E-PECy5 (ELAM-1) (Becton-Dickinson). The binding specificity was ensured by the addition of the control […]. After washing and re-suspension in the fixing solution (1% paraformaldehyde, PFA in PBS), samples were analyzed in a flow cytometry with FACSdiva Software (Becton-Dickinson). Data were expressed as mean channel fluorescence and as fluorescence percentage of positive cells. All experiments were repeated 5 times on independent cell samples coming from different experimental sessions. Evaluation of endothelin production (ET-1).

The subject of another experiment is endothelin-1 (ET-1). The experiment is described as follows: Endothelin-1 production from ECV 304 cells, EIA-kit on supernatants. The settings on record: aminaphtone 2, 4, 6 mcg/ml, dose-dependent. The method, then:
as §1
a) EIA-kit—Supernatants of cell samples ECV304 were collected, cultured as above, treated with IL-1β at 100 U/ml over 6-12-24 and 36 hrs or with IL-1β at 100 U/ml additioned with aminaphtone at the concentration of 2; 4; 6 μg/ml, respectively. Moreover, samples non-stimulated with IL-1β were incubated with the addition of aminaphtone alone at 2; 4; 6 μg/ml.
The concentration of ET-1 existing in the supernatants was quantified through Endothelin-1 EIA-Kit (CAYMAN Chemical) in an interval between 0 and 250 pg/ml. This immunometric test is based on the “sandwich” technique with a double antibody.

Experiment [2] concerns Pre-Pro-ET-1 (PPET-1) gene. The experiment in a line: Real-Time RT-PCR specific for Pre-Pro-ET-1 (PPET-1) in ECV 304 cells. As to conditions: ECV304 cells with or without IL-1β 100 U/ml, aminaphtone 2; 4; 6, 6-12-24-36 hrs. The method, then: as §1
b) Real-Time RT-PCR specific for Pre-Pro-ET-1 (PPET-1). The expression of PPET-1 gene was detected at 6-12-24-36 hrs, respectively, in samples: treated with IL-1β (100 U/ml); treated with IL-1β (100 U/ml) additioned with aminaphtone (2; 4; […]); non-stimulated by IL-1β but treated with aminaphtone alone. RT-PCR technique based on TaqMan technology was used (Applied Biosystems, Foster City, Calif.), through a sequence determination system ABI PRISM 7000 (Applied Biosystems). 2-4 μl were collected form each cDNA, diluted 1:5, in a final volume of 25 μl. […] The quantification of the specific mRNA PPET-1 was normalized for the constitutive gene expression glyceraldehyde-3-phosphate-dehydro-genase (GAPDH). Relative quantifications of the gene expression were made possible by the use of the comparative method CT (ΔΔCT). The CT value was defined as the number of PCR cycles required for overcome the fluorescence signal (defined as 10-fold the standard deviation of the basal variation). […]

For the compound `Cc1cc(OC(=O)c2ccc(N)cc2)c2ccccc2c1O` [aminaphtone, 2-hydroxy-3-methyl-1,4-naphthohydroquinone-2-p-aminobenzoate], the “ELAM-1 % positive cells” value in experiment [1] (ECV304 cells + IL-1β 100 U/ml, aminaphtone 2 mcg/ml, IL-1β alone 38.4±3.7, p=n.s.) is reported as 36.6±4.5%; in experiment [1] (ECV304 cells + IL-1β 100 U/ml, aminaphtone 4 mcg/ml, IL-1β alone 38.4±3.7, p<0.001) it was 28.2±2.9%; in experiment [1] (ECV304 cells + IL-1β 100 U/ml, aminaphtone 5 mcg/ml, IL-1β alone 38.4±3.7, p<0.001), 27.2±3.7%; in experiment [1] (ECV304 cells not activated with IL-1β, aminaphtone 4 mcg/ml, medium alone 29.1±3.1, p<0.05), 19.4±1.7%. The “ELAM-1 membrane fluorescence, mean channel (MC), mean±standard deviation” value in experiment [1] (ECV304 cells + IL-1β 100 U/ml, aminaphtone 2 mcg/ml, IL-1β alone 369.6±30.5, p<0.001) is on record as 332.2±36.8; in experiment [1] (ECV304 cells + IL-1β 100 U/ml, aminaphtone 4 mcg/ml, IL-1β alone 369.6±30.5, p<0.001), 278.4±16.2; in experiment [1] (ECV304 cells + IL-1β 100 U/ml, aminaphtone 5 mcg/ml, IL-1β alone 369.6±30.5, p<0.001) it was 252.6±10.3; in experiment [1] (ECV304 cells not activated with IL-1β, aminaphtone 4 mcg/ml, medium alone 250±22, p<0.05), 219±8.3. Further, the “ET-1 production (EIA-kit)” value is on record as “tends to reduce the ET-1 production” in the experiment with endothelin-1 (ET-1) (ECV304 cells non-activated, culture medium alone, significant at 12 h (6 mcg/ml), 24 h and 36 h (4, 6 mcg/ml)); “tends to reduce the ET-1 production” in the experiment on endothelin-1 (ET-1) (ECV304 cells stimulated with IL-1β 100 U/ml, 6-12-24-36 hrs, significant at 6 h (4, 6 mcg/ml), 12 h (4, 6 mcg/ml), 36 h (6 mcg/ml)). Also, the “gene transcription of PRE-PRO-ET-1” value in experiment [2] is reported as “trend, already observed at a level of gene transcription of PRE-PRO-ET-1”.
